Laboratory results as given in the supplement of paper PMC10307832.

Columns and labels:
Test in all cases: relative viability (nuclei count vs DMSO), 5 days (fraction); higher = more cells survive
[1] = compound: C1COCCN1C2=NC(=NC3=C2OC4=C3C=CC=N4)C5=CC(=CC=C5)NC(=O)C6=CN=C(C=C6)N + CS(=O)(=O)N1CCN(Cc2cc3nc(-c4cccc5[nH]ncc45)nc(N4CCOCC4)c3s2)CC1 [Pictilisib] (partner 1 µM)
Method in brief: (§1)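 The day after seeding in 1536-well plates, lung cancer cell lines were treated by pin tool with a single drug, or with a fixed anchor-drug dose together with five library-drug doses (not always all listed) in √10 steps. After 5 days, a combined fix-and-stain solution (final 0.05% Triton X-100, 1% formaldehyde, 1 ug/ml Hoechst) was added. Nuclei counted on 4× images gave relative viability as treated counts over vehicle counts, reported as the median of duplicate plates.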

SGI-1776 + Lapatinib = compound: CN1CCC(CNc2ccc3ncc(-c4cccc(OC(F)(F)F)c4)n3n2)CC1 [SGI-1776] + CS(=O)(=O)CCNCc1ccc(-c2ccc3ncnc(Nc4ccc(OCc5cccc(F)c5)c(Cl)c4)c3c2)o1 [Lapatinib] (partner 2 µM)
Method in brief: as §1

Entinostat + Navitoclax = compound: Nc1ccccc1NC(=O)c1ccc(CNC(=O)OCc2cccnc2)cc1 [Entinostat] + CC1(C)CCC(c2ccc(Cl)cc2)=C(CN2CCN(c3ccc(C(=O)NS(=O)(=O)c4ccc(N[C@H](CCN5CCOCC5)CSc5ccccc5)c(S(=O)(=O)C(F)(F)F)c4)cc3)CC2)C1 [Navitoclax] (partner 0.5 µM)
Method in brief: as §1

Entinostat + Linsitinib = compound: Nc1ccccc1NC(=O)c1ccc(CNC(=O)OCc2cccnc2)cc1 [Entinostat] + C[C@]1(O)C[C@@H](c2nc(-c3ccc4ccc(-c5ccccc5)nc4c3)c3c(N)nccn32)C1 [Linsitinib] (partner 1 µM)
Method in brief: as §1

Cell Line | relative viability ([1]; first compound 0.02 µM) | relative viability ([1]; first compound 0.06325 µM) | relative viability ([1]; first compound 0.2 µM) | relative viability ([1]; first compound 0.6325 µM) | relative viability ([1]; first compound 2 µM) | relative viability (SGI-1776 + Lapatinib; first compound 0.08 µM) | relative viability (SGI-1776 + Lapatinib; first compound 0.8 µM) | relative viability (SGI-1776 + Lapatinib; first compound 2.53 µM) | relative viability (SGI-1776 + Lapatinib; first compound 8 µM) | relative viability (Entinostat + Navitoclax; first compound 0.02 µM) | relative viability (Entinostat + Navitoclax; first compound 0.06325 µM) | relative viability (Entinostat + Navitoclax; first compound 0.2 µM) | relative viability (Entinostat + Navitoclax; first compound 0.6325 µM) | relative viability (Entinostat + Navitoclax; first compound 2 µM) | relative viability (Entinostat + Linsitinib; first compound 0.02 µM) | relative viability (Entinostat + Linsitinib; first compound 0.06325 µM) | relative viability (Entinostat + Linsitinib; first compound 0.2 µM) | relative viability (Entinostat + Linsitinib; first compound 0.6325 µM) | relative viability (Entinostat + Linsitinib; first compound 2 µM)
CAL-12T | 0.464 | 0.479 | 0.391 | 0.356 | 0.455 | 0.635 | 0.61 | 0.871 | 0.598 | 1.22 | 1.17 | 1.41 | 1.22 | 1.08 | 0.838 | 0.815 | 0.814 | 0.909 | 0.392
SK-MES-1 | 0.31 | 0.407 | 0.369 | 0.353 | 0.317 | 0.494 | 0.447 | 0.449 | 0.404 | 1.2 | 1.21 | 1.24 | 1.17 | 0.788 | 1.11 | 1.05 | 1.23 | 0.983 | 0.69
EBC-1 | 0.409 | 0.432 | 0.307 | 0.295 | 0.293 | 0.207 | 0.214 | 0.182 | 0.138 | 0.422 | 0.326 | 0.287 | 0.184 | 0.15 | 0.934 | 0.94 | 0.811 | 0.22 | 0.122
NCI-H1437 | 0.357 | 0.483 | 0.41 | 0.362 | 0.337 | 0.81 | 0.918 | 0.806 | 0.664 | 1.01 | 0.679 | 0.432 | 0.216 | 0.155 | 0.92 | 0.565 | 0.298 | 0.151 | 0.113
PC-14 | 0.903 | 1.05 | 0.512 | 0.558 | 0.261 | 0.337 | 0.31 | 0.261 | 0.209 | 0.999 | 1.07 | 1.14 | 0.47 | 0.113 | 1.03 | 0.947 | 1.03 | 0.364 | 0.16
LK-2 | 0.64 | 0.444 | 0.621 | 0.477 | 0.612 | 1.13 | 1.06 | 0.781 | 0.75 | 0.719 | 0.752 | 0.659 | 0.443 | 0.21 | 0.522 | 0.59 | 0.639 | 0.459 | 0.274
NCI-H1651 | 0.621 | 0.608 | 0.68 | 0.567 | 0.31 | 0.822 | 0.871 | 0.76 | 0.709 | 1.02 | 1.06 | 1.09 | 0.709 | 0.273 | 0.952 | 0.976 | 0.959 | 0.827 | 0.365
LC-2-ad | 0.441 | 0.51 | 0.526 | 0.443 | 0.487 | 1.04 | 0.95 | 1.01 | 0.88 | 0.387 | 0.289 | 0.264 | 0.17 | 0.134 | 0.769 | 0.831 | 0.7 | 0.489 | 0.219
NCI-H1734 | 0.466 | 0.494 | 0.429 | 0.443 | 0.355 | 1.13 | 1.05 | 1.11 | 0.938 | 0.87 | 0.874 | 0.86 | 0.701 | 0.412 | 0.908 | 0.985 | 0.987 | 0.916 | 0.817
NCI-H727 | 0.298 | 0.335 | 0.342 | 0.412 | 0.285 | 0.933 | 1.1 | 0.826 | 0.793 | 0.443 | 0.356 | 0.312 | 0.177 | 0.163 | 0.306 | 0.344 | 0.35 | 0.255 | 0.0975
NCI-H23 | 0.473 | 0.504 | 0.409 | 0.432 | 0.32 | 1.21 | 0.984 | 0.917 | 1.17 | 0.727 | 0.88 | 0.873 | 0.668 | 0.433 | 0.723 | 0.567 | 0.782 | 0.531 | 0.399
NCI-H1395 | 0.699 | 0.604 | 0.569 | 0.587 | 0.57 | 1.16 | 1.04 | 1.07 | 0.781 | 1.12 | 1.25 | 1.19 | 0.875 | 0.794 | 1.1 | 1.13 | 1.01 | 0.885 | 0.594
NCI-H596 | 0.356 | 0.386 | 0.374 | 0.315 | 0.407 | 1.08 | 1.06 | 0.906 | 0.825 | 0.923 | 0.962 | 0.861 | 0.8 | 0.581 | 1.08 | 1.17 | 0.958 | 0.9 | 0.799
NCI-H460 | 0.411 | 0.384 | 0.255 | 0.355 | 0.294 | 1.16 | 0.978 | 1.13 | 0.863 | 1.08 | 0.973 | 1.04 | 0.0885 | 0.0187 | 0.664 | 0.685 | 0.378 | 0.0221 | 0.0142
